The values that follow are results of earlier work, collected in patent US20030108586A1, “Method of long-term reversible contraception for animals” (priority 2001, published 2003).

Read-outs that look alike come from different tables or passages of the source.

Consider `C[C@@H]1CC2=CC(=O)CC[C@@H]2[C@H]2CC[C@@]3(C)[C@@H](CC[C@]3(C)O)[C@@H]21` [Mibolerone™, Mibolerone], for which the adverse effects entry (bitches) is listed as “clitoral hypertrophy”.

Regarding `CC(=O)O[C@]1(C(C)=O)CC[C@H]2[C@@H]3C=C(C)C4=CC(=O)CC[C@]4(C)[C@H]3CC[C@@]21C` [Ovabant™, megestrol acetate], the adverse effects entry (synthetic progestins) is given as “development of mammary tumors as well as endometrial hyperplasia”.
